This is an account of results in patent US4124598A, “Psoralens” (Hoffmann-La Roche Inc., priority 1976, dated 1978).

The structures appear in SMILES notation.

The nature of this data set: Hydrolysis in aqueous solution. The class given is physicochemical.

For the compound `Cc1oc2c(C)c3oc(=O)cc(C)c3cc2c1CCl` [4'-chloromethyl-4,5',8-trimethyl psoralen], the “hydrolysis of the chloromethyl substituent in aqueous solution” value is recorded as “readily hydrolysed in aqueous solution”.
